These results are taken from ChEMBL document CHEMBL1157539, “Thousands of chemical starting points for antimalarial lead identification” (Nature, 2010).

Each structure is given as a SMILES string.

This test relates to Plasmodium falciparum. Description: GSK_TCMDC: Inhibition of Plasmodium falciparum 3D7 in whole erythrocytes, using parasite LDH activity as an index of growth. Format: functional, organism-based. Particulars: Plasmodium falciparum, 3D7.
The molecule `CC1CN(c2ccc(NC(=O)c3cccs3)cc2)CCN1Cc1cccc(F)c1` (stereo unspecified) displayed an XC50 of 492 nM.
The same measure for `CC(C)c1ccc(NC(=O)c2ccc(NCCCN(C)Cc3ccccc3)c([N+](=O)[O-])c2)cc1`: 683 nM.
The figure for `CN1CCN(Cc2nc(-c3ccc4c(Nc5ccc(F)c(O)c5)ccnc4c3)cs2)CC1` is 171 nM; for `COc1ccc(-c2cccc(NC(=O)c3ccc(C#N)cc3)c2)cc1CNC(C)C` it is 808 nM.
The same measure for `Nc1ccc2nc(C=Cc3ccc(Cl)cc3)[nH]c2c1`: 941 nM; for `COc1cc2ccccc2c(CNCCCCCCNCc2c(OC)c(OC)cc3ccccc23)c1OC`: 1110 nM.
`CC(=Nc1ccc(Cl)c(Cl)c1)N(C)C`: the XC50 was found to be 540 nM.
Consider `CC(=O)c1cc(N2CCOCC2)ccc1N`, for which the XC50 was 913 nM.
As to `CCCCn1c(C(C)Oc2ccc(Cl)cc2Cl)nc2cc(S(N)(=O)=O)ccc21` (stereo unspecified), the XC50 turned out to be 707 nM.
`CC(C)[C@H](NC(=O)c1ccc(O)c(-c2ccc(Cl)c(Cl)c2)c1)C(=O)NCCN1CCOCC1` gave an XC50 of 911 nM.
For the molecule `CC(=O)Nc1ncc(C(=O)Nc2cccc(-c3ccc(-c4nc5cccc(C)c5[nH]4)cc3)c2)s1`, the XC50 turned out to be 643 nM.
The same measure for `N#Cc1ccccc1C(=O)N(Cc1cncn1Cc1cccc(F)c1)CC1CC1`: 734 nM; for `COc1ccc(C)c(Nc2ccnc(Nc3cccc(-c4nc5ccccc5[nH]4)c3)n2)c1`: 716 nM.
The same measure for `Cc1cc(=NN=CC=Cc2ccccc2)c2ccc(F)cc2[nH]1`: 590 nM; for `O=C(/C=C/c1ccc(Cl)c(Cl)c1)NCCCCCN1CCC(C(=O)Nc2ccc(Cl)cc2)CC1`: 776 nM.
In the case of `CC(Cc1ccc(CN(CC(N)=O)Cc2ccc(CC(C)NCCc3cccc(Cl)c3)cc2)cc1)NCCc1cccc(Cl)c1` (stereo unspecified), the XC50 was determined as 665 nM.
The figure for `CCCCN(CCCC)CCNC(=O)c1ccc(-c2nc3cc(Cl)ccc3[nH]2)c(OCC)c1` is 570 nM; for `CC(=O)c1ccc2c(c1)C(NC(=O)c1cccc(Cl)c1Cl)C(CO)C(C)(C)O2` (stereo unspecified) it is 687 nM; for `Cc1sc2cc(Cl)cc(Cl)c2c1S(=O)(=O)Nc1ccc2nccc(N3CCNCC3)c2c1` it is 124 nM.
Turning to `COc1ccc(CNC2CCN(C)CC2)cc1-c1ccc(S(=O)(=O)NC2CCC2)c(F)c1`, the XC50 stood at 840 nM.
The figure for `CC(=O)Oc1cc(C(=O)Nc2ccc(Cl)cc2)cc2ccccc12` is 856 nM; for `COc1ccc2ccccc2c1C=NNc1ccnc2cc(Cl)ccc12` it is 615 nM; for `COc1ccc(CCn2c(C3CCCCC3)nc3oc4ccccc4c(=O)c3c2=O)cc1` it is 952 nM.
`CCC(CC)OC(=O)C(C)c1cccc(C(=O)c2ccccc2)c1` (stereo unspecified) returned an XC50 of 833 nM.
The molecule `COc1ccc(Cn2c(SCc3ccc(C)cc3)nc3cc(OC)c(OC)cc3c2=N)cc1Cl` had an XC50 of 977 nM.
The figure for `CC1CN(c2ccc(NC(=O)c3ccsc3)cc2C(=O)N2CCN(Cc3ccc(C(C)(C)C)cc3)CC2)CC(C)O1` (stereo unspecified) is 866 nM.
As for `O=C(NCCN1CCCC1)c1ccc(-c2ccc(-c3nc4cc(C(F)(F)F)ccc4[nH]3)s2)cc1`, the XC50 came to 752 nM.
The same measure for `Cc1c(C(=O)NCc2ccncc2)sc2nc(-c3cccc([N+](=O)[O-])c3)cn12`: 913 nM.
The figure for `Cc1ccc(CNC(=N)NC(=O)c2nc(Cl)c(NCc3ccc(Cl)cc3)nc2N)c(C)c1` is 167 nM.
The same measure for `Oc1ccc2[nH]cc(C3=CCN(Cc4ccccc4)CC3)c2c1`: 983 nM.
In turn, `CCC(CCON1C(N)=NC(N)=NC1(C)C)c1ccc(Cl)cc1` (stereo unspecified) displayed an XC50 of 3.2 nM.
Molecule `CC(C)(C)COC(=O)c1ccc(NC(=O)N[C@@H](Cc2ccc(O)cc2)C(=O)NC2CCN(Cc3ccc(O)cc3)C2)cc1` (stereo partly specified) returned an XC50 of 668 nM.
As for `O=S(=O)(NCCN1CCCC1)c1ccc(-c2ccc(CNCc3ccc(F)cc3)cc2)cc1`, the XC50 amounted to 794 nM.
With `Cc1cccc(Nc2nccc(Nc3cccc(C(=O)NCCN4CCOCC4)c3)n2)c1`, the XC50 worked out at 1420 nM.
In turn, `CCNc1cc(C(=O)N[C@@H](Cc2ccccc2)[C@H](O)CNC2CCC(F)(F)CC2)c(F)c(N2CCCCS2(=O)=O)c1` returned an XC50 of 212 nM.
For the molecule `Nc1nc(N)c2c(ccn2Cc2cc3c(cc2Cl)OCO3)n1`, the XC50 came to 765 nM.
`CCN(CC)CCCNc1ncc2c(-c3ccc(NC(=O)Nc4cc(C(F)(F)F)ccc4F)cc3)nn(C)c2n1` displayed an XC50 of 220 nM.
The figure for `Cn1c(C2CC3CCC(C2)N3CC2CCC(NC(=O)/C=C/c3ccc(Cl)c(Cl)c3)CC2)nc2ccccc21` (stereo unspecified) is 563 nM; for `Cc1ccc(NC(=O)c2ccc(CN3CCCN(Cc4cccc(O)c4)CC3)cc2)cc1C` it is 864 nM.
Regarding `COc1ccc(NC(=O)[C@H](CC(C)C)Nc2cc(C)nc(NCCc3ccc(F)cc3)n2)cc1`, the XC50 came out at 925 nM.
As to `O=C(NC1CCCc2ccccc21)[C@@H]1CCCN1C(=O)c1ccc(O)c(-c2cccc([N+](=O)[O-])c2)c1` (stereo partly specified), the XC50 amounted to 678 nM.
The same measure for `CNC(=O)c1ccccc1Nc1nc(Nc2cccnc2)ncc1C`: 101 nM; for `O=C(/C=C/c1ccc(Cl)c(Cl)c1)NCCCCCN1CCCN(C(=O)Nc2ccc([N+](=O)[O-])cc2)CC1`: 615 nM; for `O=C(NC(c1ccc(Cl)cc1)c1ccc2cccnc2c1O)c1ccccc1` (stereo unspecified): 558 nM.
The same measure for `CCC(ON1C(N)=NC(N)=NC1(C)C)c1ccccc1` (stereo unspecified): 33.5 nM; for `Nc1nc2ccc(S(=O)(=O)Nc3ccc(C(=O)N[C@@H](CCC(=O)O)C(=O)O)c(F)c3)cc2c(=O)[nH]1`: 824 nM; for `S=C(NCCc1ccc(Cl)cc1)N1CCC(CN2CCC(c3c[nH]c4ccccc34)CC2)CC1`: 1000 nM.
The same measure for `COc1ccc2nccc(N3CCN(CCNCc4ccc5c(n4)NC(=O)CS5)CC3)c2c1`: 950 nM.
On to `CNc1ccc(CNCc2cccc(-c3ccc(-c4nc5cccc(C)c5[nH]4)s3)c2)cc1`, for which the XC50 was 987 nM.
As to `CCCCSc1ccc(CNCCCCCCNCc2ccc(SCCCC)c3ccccc23)c2ccccc12`, the XC50 worked out at 631 nM.
Molecule `N#Cc1ccc2[nH]c(-c3cc(-c4cccc(F)c4)cnc3N)nc2c1` had an XC50 of 193 nM.
The same measure for `COc1cc2nc(NCc3ccccc3)nc(NCc3ccccc3)c2cc1OC`: 151 nM; for `N#Cc1ccc2c(c1)CN(CCC1CCC(NC(=O)c3cc4cnccc4[nH]3)CC1)CC2` (stereo unspecified): 801 nM.
The same measure for `Cc1cc(=NN=Cc2ccc(F)cc2)c2cccc(C)c2[nH]1`: 779 nM.
`CCNc1cc(C(=O)N[C@@H](Cc2ccccc2)[C@H](O)CNCCc2ccccc2)cc(N2CCCC2=O)c1` had an XC50 of 844 nM.
The same measure for `CC(C)CNC(=O)CN1C(=O)C(c2ccccc2)(c2ccccc2)N=C1N`: 815 nM; for `Cc1cccc2nc(-c3cccc(-c4ccc(NC(=O)Cc5ccc[n+]([O-])c5)cc4)c3)[nH]c12`: 627 nM; for `CC(C)C(C)(C#N)NC(=O)CSc1nc2ccc([N+](=O)[O-])cc2s1` (stereo unspecified): 1030 nM.
The figure for `S=C(NCCCCCN1CCC(c2c[nH]c3ccccc23)CC1)Nc1cccc(I)c1` is 845 nM; for `O=C(c1cc(-c2cccs2)n[nH]1)N1CCN(S(=O)(=O)c2ccc(Cl)cc2)CC1` it is 292 nM.
As for `COC(=O)c1cccc(CNCc2ccc(-c3ccc(-c4nc5ccccc5[nH]4)s3)cc2)c1`, the XC50 worked out at 289 nM.
Molecule `CCCN(CC)CCOC(=O)c1ccccc1` came in with an XC50 of 739 nM.
For `CCc1c[nH]c2c(N3CCCS3(=O)=O)cc(C(=O)N[C@@H](Cc3ccccc3)[C@H](O)CNC(C)(C)c3cccc(C(F)(F)F)c3)cc12`, the XC50 amounted to 228 nM.
The molecule `O=C(NC(=O)c1ccccc1)NC1CCN(c2ccnc3cc(Cl)ccc23)C1` (stereo unspecified) displayed an XC50 of 584 nM.
The figure for `CCCNC[C@@H](O)[C@H](Cc1ccccc1)NC(=O)c1cc(NCC)cc(N2CCCCS2(=O)=O)c1` is 224 nM; for `O=C(/C=C/c1cccc2ccccc12)NCCCCCN1CCC(c2c[nH]c3ccccc23)CC1` it is 1140 nM.
The figure for `O=S(=O)(c1cc(Cl)c(Cl)cc1Cl)N1CCCCC(c2ccc(C(F)(F)F)cc2)=N1` is 205 nM; for `Cc1nc2ccccn2c1C1(O)C(=O)Nc2c(Cl)cc(Cl)cc21` (stereo unspecified) it is 1590 nM.
As for `CC1CCCN(S(=O)(=O)c2cc(Br)cc3c2N(C(=O)C2CC2)CC3)C1` (stereo unspecified), the XC50 was determined as 724 nM.
For the molecule `CN1CCCC(CN2CCN(Cc3ccc(-c4cccc(-c5nc6cc(F)ccc6[nH]5)c4)cc3)CC2)C1` (stereo unspecified), the XC50 came out at 184 nM.
For `CC(=O)N1N=C(c2ccc(Cl)cc2)Sc2c1nc(C1CCCCC1)n2C(C)=O`, the XC50 was 249 nM.
`COc1ccc(OCC(=O)Nc2cc(-c3nc4ccccc4[nH]3)ccc2Cl)cc1` showed an XC50 of 903 nM.
The figure for `COc1ccc(C2C(C(=O)Nc3ccc4c(c3)OCO4)c3cc(OC)c(OC)cc3C(=O)N2C)cc1` (stereo unspecified) is 1040 nM.
The same measure for `O=C(Nc1cccc(-c2cccc(-c3nc4cc(C(F)(F)F)ccc4[nH]3)c2)c1)c1csnn1`: 238 nM.
The same measure for `C[C@@H](Oc1cc(-n2cnc3ccc(NC(=O)NC(C)(C)C)cc32)sc1C(N)=O)c1ccccc1Cl`: 330 nM; for `Nc1ncc(-c2ccsc2)c2ccc(-c3cnc[nH]3)cc12`: 573 nM; for `Cc1oc(-c2cccc(Oc3ccccc3)c2)nc1CN(Cc1cnn(C)c1)C(C)C`: 1090 nM.
Take `Cc1cccc2nc(-c3cccc(-c4ccc(NC(=O)Nc5ccc(F)c(F)c5F)cc4)c3)[nH]c12`: the XC50 was 168 nM.
`Cc1nc(-c2cccc(Nc3nccc(NCC(O)c4ccc(C(F)(F)F)cc4)n3)c2)cs1` (stereo unspecified) had an XC50 of 511 nM.
The figure for `CN1CCN(c2ccnc3ccc(NC(=O)Nc4cccc(C#N)c4)cc23)CC1` is 799 nM; for `COc1cc2ccccc2cc1CCNCCCCNCCc1cc2ccccc2cc1OC` it is 403 nM.
`O=C(Nc1cccc(CN2CCCN(Cc3ccc(F)cc3)CC2)c1)c1cc2ccccc2s1` returned an XC50 of 794 nM.
The figure for `O=C(Nc1ccc(Cl)cc1)c1ccc(S(=O)(=O)NCC2CCN(CC3CCCCC3)CC2)cc1` is 857 nM.
Turning to `CCOC(=O)C1=C(C)NC2=C(C(=O)CC(C)(C)C2)C1c1ccc(Cl)cc1` (stereo unspecified), the XC50 was 923 nM.
In turn, `CCCCCCP(=O)(COc1ccc(CCN(CC(O)COc2cccc3[nH]c(C(N)=O)cc23)CC(O)COc2cccc3[nH]c(C(N)=O)cc23)cc1)OCCCC` (stereo unspecified) showed an XC50 of 724 nM.
In the case of `COc1ccc(CN2CCC(CNC(C)c3cccc4ccccc34)CC2)cc1` (stereo unspecified), the XC50 came to 175 nM.
